{"source": "ChEMBL document CHEMBL1152826", "about": "“Fatty acid synthesis is essential for survival of Cryptococcus neoformans and a potential fungicidal target” (2007)", "key": {"Cryptococcus neoformans [1]": {"tested_on": "Cryptococcus neoformans", "experiment": "Antifungal activity against Cryptococcus neoformans H99 expressing PCTR4-2/FAS2 assessed as logarithmic reduction in viable cells at 8 ug/ml in presence of bathocuproinedisulfonic acid", "format": "functional"}, "Cryptococcus neoformans [2]": {"tested_on": "Cryptococcus neoformans", "experiment": "Antifungal activity against Cryptococcus neoformans H99 expressing PCTR4-2/FAS1 assessed as logarithmic reduction in viable cells at 8 ug/ml in presence of bathocuproinedisulfonic acid", "format": "functional"}, "Cryptococcus neoformans [3]": {"tested_on": "Cryptococcus neoformans", "experiment": "Antifungal activity against Cryptococcus neoformans H99 expressing PCTR4-2/FAS1 assessed as reduction in viable cells at 8 ug/ml after 72 hrs in presence of CuSO4 relative to CuSO4 alone", "format": "functional"}, "Cryptococcus neoformans [4]": {"tested_on": "Cryptococcus neoformans", "experiment": "Fungicidal activity against Cryptococcus neoformans H99 expressing PCTR4-2/FAS2 after 72 hrs in presence of CuSO4", "format": "functional, organism-based"}}, "note": "The source made the active and inactive calls. No cut-off for these calls is given here.", "data": [{"smiles": "OC(Cn1cncn1)(Cn1cncn1)c1ccc(F)cc1F", "note": "[FLUCONAZOLE]", "values": [{"measurement": "Activity", "setting": "Cryptococcus neoformans [1]", "result": 0.5}, {"measurement": "Activity", "setting": "Cryptococcus neoformans [2]", "result": 0.5}, {"measurement": "fold change (FC)", "setting": "Cryptococcus neoformans [3]", "result": 100}, {"measurement": "Activity", "setting": "Cryptococcus neoformans [4]", "result": "Active"}]}]}
